The record followed here is publication PMC11053136 (Nature Communications, 2024).

One data set deals with K562 cells. Particulars: 6 µM.
The target in another data set is SARS-CoV2 main protease (Severe acute respiratory syndrome coronavirus 2, UniProt P0DTD1). The class given is biochemical.
For the next data set, the target named is perforin (Homo sapiens, UniProt P14222). In kind it is cell-based.
The subject of data set [1] is Streptococcus pneumoniae (S.pn.) D39Δcps. The class given is cell-based.
Data set [2] has as its target protein tyrosine phosphatase PTP1B (Homo sapiens, UniProt P18031). The class given is biochemical.
Data set [3] has as its target T1, wild-type PLY (Streptococcus pneumoniae, UniProt Q7ZAK5). The data set can be described thus: biochemical. In kind it is binding.
The target in data set [4] is T2, PLY (Streptococcus pneumoniae, UniProt Q7ZAK5).
In data set [5] the target is T2, PLY. Put plainly: cell-based. The class given is cell-based.
The target in another data set is Perfringolysin O (PFO) (Clostridium perfringens, UniProt P0C2E9). Put plainly: cell-based.
For data set [6], the target named is T1, wild-type PLY. The data set can be described thus: cell-based. In kind it is cell-based.

“Also recorded” adds a separate entry of the source.

T1 sequence (Q7ZAK5 whole entry, looked up): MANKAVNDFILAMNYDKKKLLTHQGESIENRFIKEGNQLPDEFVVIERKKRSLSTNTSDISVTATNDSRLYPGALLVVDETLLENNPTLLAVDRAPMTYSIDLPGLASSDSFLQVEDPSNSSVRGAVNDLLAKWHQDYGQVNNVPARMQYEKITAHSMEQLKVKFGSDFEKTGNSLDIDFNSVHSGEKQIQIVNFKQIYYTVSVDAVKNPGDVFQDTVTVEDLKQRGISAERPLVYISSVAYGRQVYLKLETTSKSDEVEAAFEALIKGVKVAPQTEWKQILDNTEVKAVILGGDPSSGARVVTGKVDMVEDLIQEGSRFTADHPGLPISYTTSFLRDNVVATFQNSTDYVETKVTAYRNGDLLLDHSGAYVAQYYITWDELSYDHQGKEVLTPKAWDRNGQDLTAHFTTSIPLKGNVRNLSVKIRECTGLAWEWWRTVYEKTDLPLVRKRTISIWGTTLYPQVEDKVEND
T2 sequence (Q7ZAK5 whole entry, looked up): as above
Sequence of protein tyrosine phosphatase PTP1B (P18031 whole entry): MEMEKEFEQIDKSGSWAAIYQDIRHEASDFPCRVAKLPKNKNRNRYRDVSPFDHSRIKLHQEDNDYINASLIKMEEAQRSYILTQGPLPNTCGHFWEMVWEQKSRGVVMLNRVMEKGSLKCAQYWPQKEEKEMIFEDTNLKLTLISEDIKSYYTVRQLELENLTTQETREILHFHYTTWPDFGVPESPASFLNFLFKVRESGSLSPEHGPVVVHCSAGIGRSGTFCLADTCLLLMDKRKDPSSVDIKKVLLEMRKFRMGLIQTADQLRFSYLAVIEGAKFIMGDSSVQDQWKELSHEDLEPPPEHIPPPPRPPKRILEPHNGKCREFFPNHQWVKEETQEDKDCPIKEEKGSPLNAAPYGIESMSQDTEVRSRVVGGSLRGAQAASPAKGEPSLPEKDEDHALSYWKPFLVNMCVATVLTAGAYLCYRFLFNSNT
Sequence of perforin (P14222 22-555): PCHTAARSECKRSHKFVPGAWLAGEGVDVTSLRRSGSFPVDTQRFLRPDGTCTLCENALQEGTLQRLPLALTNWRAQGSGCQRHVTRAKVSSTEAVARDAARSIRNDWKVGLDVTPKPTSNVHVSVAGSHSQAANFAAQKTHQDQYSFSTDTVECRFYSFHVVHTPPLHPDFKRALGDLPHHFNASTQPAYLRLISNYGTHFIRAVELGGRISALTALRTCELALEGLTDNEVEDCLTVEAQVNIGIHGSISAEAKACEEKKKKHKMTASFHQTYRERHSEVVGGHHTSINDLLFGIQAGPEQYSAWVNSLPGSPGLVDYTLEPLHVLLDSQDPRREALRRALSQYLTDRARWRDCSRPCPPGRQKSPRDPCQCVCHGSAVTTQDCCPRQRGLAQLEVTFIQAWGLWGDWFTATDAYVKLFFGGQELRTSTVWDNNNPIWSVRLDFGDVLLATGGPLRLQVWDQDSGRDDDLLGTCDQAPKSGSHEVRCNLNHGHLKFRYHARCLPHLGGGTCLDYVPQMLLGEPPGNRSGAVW
Sequence of Perfringolysin O (PFO) (P0C2E9 29-500 limits assumed): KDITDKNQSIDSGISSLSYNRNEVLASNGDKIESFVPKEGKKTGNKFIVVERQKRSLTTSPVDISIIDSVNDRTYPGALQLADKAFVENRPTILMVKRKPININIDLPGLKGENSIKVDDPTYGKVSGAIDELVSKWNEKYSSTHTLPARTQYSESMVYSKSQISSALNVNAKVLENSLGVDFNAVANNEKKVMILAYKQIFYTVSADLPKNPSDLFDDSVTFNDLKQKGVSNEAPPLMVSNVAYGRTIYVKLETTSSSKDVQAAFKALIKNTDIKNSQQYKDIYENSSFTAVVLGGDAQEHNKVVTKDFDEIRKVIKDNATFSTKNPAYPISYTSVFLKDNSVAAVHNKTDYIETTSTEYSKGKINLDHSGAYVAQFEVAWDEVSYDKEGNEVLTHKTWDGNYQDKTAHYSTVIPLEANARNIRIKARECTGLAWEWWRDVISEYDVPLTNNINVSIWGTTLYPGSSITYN

As for `Cc1cc(C)cc(N2C(=O)NC(=O)/C(=C\c3ccc(-c4ccc(Cl)cc4Cl)o3)C2=O)c1` [PB-3], the “Cytotoxicity for K562 cells alone” value in the data set on K562 cells is reported as “not cytotoxic”. In addition, the “Inhibition of SARS-CoV2 main protease” value on SARS-CoV2 main protease is “inactive; also recorded: without detecting inhibition”. On perforin, the “Inhibition of lysis of K562 cells by NK cells” value is on record as “did not inhibit” and the “reduction of median target cell lysis compared to DMSO control” value worked out at 15.6%. Further, in [1], the “Survival of A549 cells infected with D39Δcps” value is given as “almost entirely survived” and the “duration of activity in the cellular infection assays” value is on record as “about 4 h”. Besides, the “Inhibition of PTP1B” value in data set [2] was “inactive; also recorded: without detecting inhibition”. On wild-type PLY [3], this molecule gave a Kd of 256 nM and a residence time of 36.2 min. At wild-type PLY [3] (read-out: koff (off-rate)), the koff came out at 0.00046 s⁻¹. The kon at wild-type PLY [3] (read-out: kon (on-rate)) came out at 1800 M⁻¹ s⁻¹. Moreover, at PLY [4], the “Effect of inhibitor alone on A549 cells” value was “harmless to cells” and the “Protection of A549 cells from PLY (microscopy)” value was “effectively protected cells from PLY-associated cellular damage”. On PLY [5], the “Inhibition of PLY-induced cellular damage, LDH assay (qualitative)” value is “significant concentration-dependent inhibition of PLY” and the “prevented cellular damage (LDH release)” value is on record as “more than 95%”. For the same molecule, at PLY [5] (A549, read-out: inhibition of PLY in cellular experiments at 1 µM), the inhibition at 1 µM is approximately 20%. Also, the inhibition at 6 µM on PLY [5] (A549, read-out: inhibition of PLY in cellular experiments at 6 µM, 6 µM, after 24 h) is more than 90%.

On to `COc1ccc(C=C2C(=O)NC(=O)NC2=O)cc1COc1ccc(F)cc1F` [PB-1], for which the figures for the IC50 at Perfringolysin O (PFO) and at wild-type PLY [6] were 4.6 µM and 38 ± 6 µM, respectively. Moreover, on wild-type PLY [6], the “Inhibition of hemoglobin release, virtual hit screen” value was “actively hindering hemoglobin release at all three concentrations; also recorded: displayed inhibition”. Moreover, on PLY [5], the “Inhibition of PLY-induced cellular damage, LDH assay (qualitative)” value was “significant concentration-dependent inhibition of PLY”.

With `O=Cc1ccc(-c2ccc(Cl)cc2Cl)o1` [PB-3.1], the “PLY inhibition in the hemolysis assay (qualitative)” value at wild-type PLY [6] is recorded as “no inhibitors; also recorded: did not inhibit PLY alone”.

For the molecule `Cc1cc(C)cc(N2C(=O)CC(=O)NC2=O)c1` [PB-2.3], at wild-type PLY [6], the “IC50 (95% CI), inhibition of hemolysis by wild-type PLY” value was “Inactive” and the “PLY inhibition in the hemolysis assay (qualitative)” value is reported as “no inhibitors; also recorded: did not inhibit PLY alone”.

The term Kd denotes the concentration at which binding is half-saturated. Lower therefore signals a tighter complex. What is called koff is the first-order rate constant of dissociation. Usually kon stands for the rate constant with which the complex forms. For orientation: inhibition means the percentage by which the read-out fell short of the control. What is called IC50 is the concentration at which inhibition is half-maximal. Higher therefore signals lower potency.
